Patent US10111822B2, “External dermal composition for anti-ageing and method for producing the same” (Hayashibara Co., Ltd., priority 2012, dated 2018)

How the values were obtained:
glutathione [1] = assay: Production level of glutathione in A431 cells; type: cell-based, human; conditions: 0.1 mM, 24 h, control = 100%
Method: To Dulbecco's MEM medium, containing 10% v/v calf fetal serum and an antibiotic (abbreviated as “D-MEM”, hereinafter), were added ascorbic acid 2-glucoside, a reagent grade specimen commercialized by Hayashibara Co., Ltd., Okayama, Japan, or L-ascorbic acid, a special reagent grade specimen commercialized by Wako Pure Chemical Industries, Ltd., Tokyo, Japan, […]
Continuously-cultivated A431 cells in D-MEM medium were collected, resuspended in D-MEM medium, inoculated to culture plates with 10 cm in diameter (φ) in an amount of 1×10^6 cells/10 mL/plate, and cultured for 24 hours. Thereafter, the culture supernatants were removed by sucking, and the remaining cells were added with any of the test solutions in an amount of 10 mL/plate and cultured for another 24 hours. As a control, cells were added with only D-MEM medium in an amount of 10 mL/plate and cultured for 24 hours. To each plate, which had been removed its culture supernatant, was added ice-chilled Dulbecco's PBS (−) commercialized by Nissui Pharmaceutical Co., Ltd., Tokyo, Japan, to wash cells, which were then collected with a scraper. Glutathione was quantified with “Glutathione Assay Kit”, a commercially available glutathione assay kit commercialized by BioVision, Inc., San Francisco, USA. In this experiment, the control and test solutions were respectively assayed by using three plates respectively, and the data were averaged for obtaining a glutathione production level for each plate. A5% v/v CO2 incubator was used for culturing A431 cells in any case. Relative values of test samples were determined with the proviso that the production levels of reduced glutathione and total glutathione levels in A431 cells that had been cultured with only D-MEM medium were respectively regarded as 100%, and the results are in Table 4.

A431 cells = assay: Cytotoxicity in A431 cell culture; type: cell-based, human; conditions: D-MEM medium, 24 h
glutathione [2] = assay: Production level of glutathione in NHEK cells; type: cell-based, human; conditions: 0.1 mM, 24 h, control = 100%
Method: Continuously-cultivated NHEK cells in EpiLife medium were collected, resuspended in EpiLife medium, inoculated to culture plates with 10 cm in diameter in an amount of 1×10^6 cells/10 mL/plate, and cultured for 24 hours. Thereafter, each culture supernatant was removed by sucking, and any of the test solutions was added to the remaining cells in a volume of 10 mL/plate, followed by culturing the cells for another 24 hours. As a control, cells were added with only D-MEM medium in an amount of 10 mL/plate and cultured for 24 hours. Each culture supernatant was removed from each plate, then ice-chilled Dulbecco's PBS (−), commercialized by Nissui Pharmaceutical Co., Ltd., Tokyo, Japan, was added to rinse the remaining cells, which were then collected with a scraper. Glutathione was quantified on “Glutathione Assay Kit”, a product name of glutathione assay kit commercialzied by BioVision, Inc., San Francisco, USA. In this experiment, the control and test solutions in respective three plates were assayed for glutathione production level for each plate and averaged for obtaining the glutathione production level of each solution. A 5% v/v CO2 incubator was used for culturing NHEK cells in any case. Relative values of test samples were determined with the proviso that the production levels of reduced glutathione and total glutathione in NHEK cells that had been cultured with only EpiLife medium were respectively regarded as 100%, and the results are in Table 5.

NHEK cells = assay: Cytotoxicity in NHEK cell culture; type: cell-based, human; conditions: EpiLife medium, 24 h
B16 cells = assay: Cytotoxicity in B16 cell culture; type: cell-based, mouse; conditions: D-MEM medium, 2.0 mM, 2 h
occludin = assay: TJ-related protein occludin in NHEK cells (Western); type: cell-based, human; conditions: 1 mM, 3 days, CaCl2 positive control = 100%, no addition 63%
Method: (§1) The following experiment was conducted to examine the effect of ascorbic acid 2-glucoside on the production of TJ-related proteins that constitute cell-cell adhesion structures by focusing on occludin and ZO-1 that are focused on as TJ-related proteins known to exist in a granular layer of epidermis: As a model for typical normal human epidermal cells, NHEK cells were suspended in EpiLife medium (pH 7.4); inoculated to 12-well microplates at a cell density of 1×10^5 cells/well; cultured overnight under the conditions of 37° C. and 5% v/v CO2; and further cultured for three days under the conditions of 37° C. and 5% v/v CO2 after adding either CaCl2 as a positive control to each well to give a final concentration of 0.5 mM, or “AA2G”, a product name of a particulate composition containing anhydrous crystalline ascorbic acid 2-glucoside, commercialized by Hayashibara Co., Ltd., Okayama, Japan, to give a final concentration of 0.5 or 1 mM. […] A sample of 20 μg protein for each lane per each cell extract in respective wells was applied to sodium dodecyl sulfate polyacrylamide gel electrophoresis (SDS-PAGE) with 10% w/v SDS containing DTT, followed by assaying the concentration of occludin or ZO-1 in each cell extract with “Luminate Western HRP Substrates”, a product name of a premixed, ready-to-use chemiluminescent detection reagent using an internal standard “α-Tubulin”, commercialized by Merck KGaA, Darmstadt, Germany, wherein there were used “F-11”, a product name of an anti-occludin mouse monoclonal antibody, commercialized by Santa Cruz Biotechnology, Inc., Texas, USA, or “ZO1-1A12”, a product name of a ZO-1 mouse monoclonal antibody, commercialized by Invitrogen Corporation, Calif., USA, was used as a first antibody; and “PO447”, a product name of a horseradish peroxidase (HRPO) labeled anti-mouse IgG, commercialized by DAKO Japan Inc., Tokyo, Japan, or “PO448”, a product name of an HRPO-labeled anti-rabbit IgG, commercialized by DAKO Japan Inc., Tokyo, Japan, as a secondary antibody. […]

cornified envelope (CE) = assay: Production of cornified envelope (CE) in NHEK cells; type: cell-based, human; conditions: 1 mM, 5 days, control 0.63 ± 0.07
Method: The following experiment was conducted to examine the effect of ascorbic acid 2-glucoside on the production of CE in a keratinous layer. As a model for typical normal human epidermal cells, normal human epidermal keratinocytes from neonatal foreskin, commercialized by Kurabo Industries Ltd., Osaka, Japan, and abbreviated as “NHEK cells”, hereinafter, were suspended in EpiLife medium (pH 7.4), commercialized by Invitrogen Corporation, Calif., USA, and called “EpiLife medium”, hereinafter, inoculated to 12-well microplates at a cell density of 1×10^5 cells/well, and cultured under the conditions of 37° C. and 5% v/v CO2 overnight. Thereafter, “AA2G”, a product name of a particulate composition containing anhydrous crystalline ascorbic acid 2-glucoside, commercialized by Hayashibara Co., Ltd., Okayama, Japan, was added to each well to give a final concentration of 0.5 or 1 mM, or, as a positive control, CaCl2 was added to each well to give a final concentration of 1 mM; and the cells in each well were cultured at 37° C. for five days while replacing the medium in each well with a fresh preparation of EpiLife medium having the above-identified concentration of ascorbic acid 2-glucoside or CaCl2. Assay for intracellular CE content was carried out in accordance with Tatsuya Hasegawa et al., “Lipids”, Vol. 46, pp. 529 to 535, 2011. After completion of the culture, the culture supernatant in each well was immediately removed, followed by detaching and extracting the cells adhered to the wall of each well by means of pipetting with phosphate buffered saline (PBS, pH 7.4) containing 2% w/v sodium dodecyl sulfate (SDS), and collecting insoluble fractions by centrifugation at 15,000 rpm for 10 min. […] The measured values were regarded as CE production levels. […]

ZO-1 = assay: TJ-related protein ZO-1 in NHEK cells (Western); type: cell-based, human; conditions: 1 mM, 3 days, CaCl2 positive control = 100%, no addition 38%
Method: as §1

Row | SMILES | Reduced glutathione (glutathione [1]) | Total glutathione (glutathione [1]) | cytotoxicity (A431 cells; 1.0 mM) | upper limit concentration that does not induce cytotoxicity (A431 cells) | Reduced glutathione (glutathione [2]) | Total glutathione (glutathione [2]) | cytotoxicity (NHEK cells; 0.5 mM) | upper limit concentration that does not induce cytotoxicity (NHEK cells) | cytotoxicity (B16 cells) | Occludin concentration in cell extract (occludin) | OD310nm Value (CE Production level) (cornified envelope (CE)) | ZO-1 Concentration in cell extract (ZO-1)
1 | O=C1O[C@H]([C@@H](O)CO)C(O)=C1O [L-ascorbic acid] | 103% | 102% | cytotoxicity was induced | 0.1 mM | 102% | 103% | cytotoxicity induced | 0.1 mM | induced cytotoxicity |  |  | 
2 | [Ca+2].[Cl-].[Cl-] [CaCl2, reference compound] |  |  |  |  |  |  |  |  |  | 100% | 1.07 ± 0.07 | 100%
